Results as given in patent publication US20240122946A9, “METHODS AND COMPOSITIONS FOR TREATING 25-HYDROXYVITAMIN D DEFICIENCY” (Board of Supervisors of Louisiana State University and …, priority 2019, published 2024).

Legend:
[1] = tested on: FL83B mouse hepatocytes; test: LC and cholecalciferol treatment of hepatocytes (GCLC-KD, VDR-KD); type: cell-based
Protocol: (§1) Cell culture and treatment: FL83B mouse hepatocytes (ATCC®, Manassas, Va.) were cultured and maintained in F-12K complete medium. Mouse C2C12 myoblasts were cultured at 37° C. in an atmosphere of 5% CO2 in growth medium (GM) consisting of Dulbecco's modified Eagle's medium (DMEM) supplemented with heat-inactivated 10% fetal bovine serum and antibiotics (penicillin and streptomycin). […] The control siRNA, a scrambled nonspecific RNA duplex that shares no sequence homology with any of the genes, was used as a negative control.
(§2) Cells were transiently transfected with 0-100 nM siRNA complex using Lipofectamine™2000 transfection reagent (Invitrogen, Carlsbad, Calif.). […] TNF-α (0-250 μg/mL) was exposed for 6 h to differentiated myotubes.
(§3) Analysis of mRNA expression using quantitative polymerase chain reaction: Total RNA was extracted from cells or tissue using the TRIzol reagent (Life Technologies) following the manufacturer's instructions. The quality and quantity of the extracted RNA were determined on a NanoDrop spectrophotometer (Thermo Scientific). First-strand complementary DNA (cDNA) synthesis was performed using a commercially available High Capacity RNA-To-cDNA kit (Life Technologies) in a final reaction volume of 20 μL. Amplification of cDNA was performed on a 7900HT Real Time polymerase chain reaction (PCR) system (Applied Biosystems). PCR conditions were 2 min at 50° C., 10 min at 95° C., 40 cycles of 95° C. for 15 s, and then 60° C. for 60 s. Glyceraldehyde-3-phosphate dehydrogenase (GAPDH) was used as a housekeeping gene to normalize threshold cycle (CT) values.
(§4) Levels of GSH in plasma, tissues, and cultured cells were determined using HPLC. This assay determines total GSH status. Cell viability was determined using the Alamar Blue method (Alamar Biosciences, Sacramento, Calif.). Oxidative stress was assessed by the quantification of protein carbonyls and MDA using Protein Carbonyl Colorimetric and TBARS Assay Kits, respectively (Cayman Chemical, Ann Arbor, Mich.). Measurements of HbA1c, Complete Blood Count, glucose, and calcium were done at the clinical chemistry laboratories of LSUHSC-Shreveport. Due to limited amount of blood collected from each mouse, we borrowed diluents from the clinical laboratory and diluted the blood before taking it to the clinical laboratory, which reduced the amount of blood required for clinical tests. All chemicals were purchased from Sigma Chemical Co. (St. Louis, Mo.) unless otherwise mentioned.

[2] = tested on: C2C12 myotubes; test: LC, TNF-α and 1,25(OH)2VD treatment of myotubes (GCLC-KD, PGC-1α KD); type: cell-based, mouse
Protocol: as §1, §2, §3, §4

[3] = tested on: mice maintained on a VD-deficient HFD; test: Supplementation of mice on VD-deficient HFD: blood biomarkers; type: in vivo, mouse; conditions: VD 67 IU/kg BW, vs OO (vehicle) control
Protocol: Effect of supplementation with VD along with LC on plasma levels of GSH, 25(OH)VD, and IR, and on GSH and VD regulatory genes in liver and on GSH and glucose metabolism genes in muscle: Beginning at 5 weeks of age, male C57BL/6J mice were fed and maintained on a VD-deficient HFD and water ad libitum for 16 weeks. Mice were gavaged daily for the last 8 weeks with saline, olive oil (OO), LC (5 mg/kg BW), VD (67 IU/kg BW), or LC+VD to investigate whether co-supplementation with GSH precursor has a better effect on blood levels of 25(OH)VD compared with levels achieved using VD alone. VD was dissolved in OO and one group of mice was also gavaged with OO (vehicle) alone.
Animal studies. Male C57BL/6J mice (5 weeks old, 20-24 g) were purchased from The Jackson Laboratory and acclimatized in the institutional animal house for 1 week. Mice were divided into various groups by computer-generated randomization and then housed and labeled in individual cages. They were fasted overnight and then weighed. Blood glucose was assessed by tail prick using an Accu-Chek glucometer (Boehringer Mannheim Corp., Indianapolis, Ind.). BW and blood glucose were monitored weekly. Control animals were fed a normal diet (lower in fat), while animals in the HFD group were fed HFD for 16 weeks. For studies with VD-deficient animals, the mice were maintained on a VD-deficient HFD for 16 weeks.
In addition, two groups of mice maintained on the VD-deficient HFD were also simultaneously supplemented by oral gavage with either water or the same dose of the vehicle used for dissolving cholecalciferol (OO) (FIG. 5). The animals were maintained under standard housing conditions at 22° C. 2° C. with 12/12-h light/dark cycles. Normal diet, HFD, and VD-deficient HFD were purchased from The Jackson Laboratory. The amount of food intake was monitored at 12 and 16 weeks into the treatment period to assess consumption. At the end of 16 weeks, the animals were fasted overnight and then euthanized for analysis by exposure to isoflurane (Webster Veterinary Supply, Inc., Devens, Mass.). Blood was collected via heart puncture with a 19^1/2-gauge needle into heparinized Vacutainer tubes. Plasma was isolated after centrifuging the blood in a 4° C. centrifuge at 3000 rpm for 10 min. The livers were perfused with cold saline to free them of residual blood. Liver and gastrocnemius muscle were collected immediately, weighed, quickly diced, and frozen in liquid nitrogen at −80° C.
Dose justification for LC and vitamin D: While lc can be taken as a supplement, it is also formed in the body from methionine. An adult ingests about 500 mg LC from dietary sources, assuming that an average protein intake is 90 g/day and that LC is about 0.6% of total protein. Similarly, taking into account daily dietary intake and diet composition, mice consume 3-5 mg LC/kg BW. The LC/methionine content of protein varies with the source of the protein. The LC dose used in our studies, 5 mg/kg BW, is theoretically a supplementation onefold to twofold that of the LC ordinarily consumed by the mice, which could be considered both modest and safe. […]
25(OH)VD, 1,25(OH)2VD, VDBP, GSH, TNF-α, PTH, insulin, glucose, protein carbonyl, and MDA assays: Plasma levels of 25(OH) vitamin D were determined using an ELISA kit (Calbiotech, Spring Valley, Calif.) and 1,25(OH)2 vitamin D using another ELISA kit (My BioSource, San Diego, Calif.). Plasma VDBP quantification was carried out using a kit purchased from ALPCO Diagnostics (Salem, N.H.). […]

[4] = LC alone, compared with control VDR-KD cells
[5] = oral gavage 8 weeks, LC 5 mg/kg BW

With N[C@@H](CS)C(=O)O [LC, l-cysteine] the CYP27A1 gene upregulation [1, 4] was “not”, the VDBP gene expression [1, 4] was “upregulation” and the “oxidation of both proteins and lipids” value ([1]; LC, GSH-normal and GSH-deficient hepatocytes) was “reduced”. The GSH levels ([2]; LC 300 μM, 6 h) was “increases” and the TNF-α levels ([2]; LC 300 μM, 6 h, GCLC-normal and GCLC-KD myotubes) was “decrease”.
For C=C1/C(=C\C=C2/CCC[C@]3(C)[C@@H]([C@H](C)CCCC(C)(C)O)CC[C@@H]23)C[C@@H](O)C[C@@H]1O [1,25(OH)2VD, 1alpha,25-dihydroxyvitamin D3], the “upregulation of NRF2 and GLUT-4” value ([2]; PGC-1α KD myotubes) was “absent”.
With TNF-α the VDR/PGC-1α/GLUT-4 gene expression ([2]; exogenous TNF-α, 6 h) was “downregulates”.
In the case of C=C1CC[C@H](O)C/C1=C/C=C1\CCC[C@]2(C)[C@@H]([C@H](C)CCCC(C)C)CC[C@@H]12 [VD, cholecalciferol], the “effect on VD regulatory genes (mRNA)” value ([1]; cholecalciferol 10 nM, 22 h) was “stimulatory effect”, the “IR (HOMA-IR) in blood” value [3, 5] was “did not show effect” and the “blood HbA1c” value [3, 5] was “did not show effect”. For the same compound, the “blood level of TNF-α” value [3, 5] was “did not show effect”, the “blood level of VDBP” value ([3]; oral gavage 8 weeks) was “did not show effect” and the “blood level of GSH” value ([3]; oral gavage last 8 weeks of 16 weeks VD-deficient HFD, LC 5 mg/kg BW) was “did not show effect”.
